Legend:
[1] = test system: water intake; conditions: injected into the anterior diencephalon in the rat, Fitzsimons 1971; cited from earlier work
[2] = test system: blood pressure; conditions: intracerebroventricular infusion in the rat, concentrations 1,000 times higher than that of AII that increased blood pressure, Wright et al. 1989; cited from earlier work
[3] = test system: full thickness dermal wounds; experiment: in vivo wound healing assay, full thickness dermal wounds in rats; design: species or system Sprague Dawley rats; conditions: 100 μg/wound in 10% carboxymethyl cellulose, daily for first five days; measured days 2, 4, 7 and 9
Method: Analogs of angiotensin II and analogs of angiotensin II fragments having the structures disclosed herein were prepared using an automated peptide synthesizer and methods familiar to those having ordinary skill in the art. Each of the analogs was tested for its ability to accelerate wound healing according to the method described below. Results of procedures were used to determine the extent of wound closure at days 2, 4, 7 and 9, measured as a percentage of a vehicle-treated control wound. Since all of the analogs were not tested during the same experimental procedure, AII was included as a positive control for each group of peptides tested.
Female Sprague Dawley rats, 12 weeks old, were obtained from Simonsen Laboratories, Gilroy, Calif. On the day of surgery, the rats received intramuscular ketamine/rompum anesthesia prior to preparation for surgery. […] At days 2, 4, 7 and 9, the area of the skin wounds was measured under methoxyflurane anesthesia (commercially available as Metofane from Pittman-Moore, Mundelein, Ill.). The area of the wound was determined by (1) tracing the wound shape onto graph paper (1×1 mm squares); (2) cutting out the shape; (3) weighing the paper and comparing the weight with a 1.5×1.5 cm paper cutout; and (4) counting the number of squares. In addition, on days 2 and 4 the area of granulation tissue was similarly determined.

[4] = test system: rat carotid artery; conditions: cited from earlier work; for reduction of intimal hyperplasia / intimal area: treatment of rats, Pratt et al. 1992; for neointimal formation: similar model, Janiak et al. 1992, CGP 42112 infused perivascularly for 14 days, losartan at low doses
[5] = test system: wound tissue; conditions: application to wound tissue; cited from earlier work
[6] = test system: blood pressure; conditions: cited from earlier work

Tyr-Ile-His-Pro-Phe (YIHPF) [AII(4-8)]
effect on water intake [1]: only a slight effect | effect on blood pressure [2]: minimal effect | wound closure relative to vehicle-treated control wounds [3]: not to be effective

AII(1-4): AII fragment (DRVY; Angiotensin 2; UniProt P01019 25-28, looked up, fragment)
effect on water intake [1]: only a slight effect

His-Pro-Phe [AII(6-8)]
wound closure relative to vehicle-treated control wounds [3]: not to be effective

Cc1cc(Cn2cnc3c2C[C@@H](C(=O)O)N(C(=O)C(c2ccccc2)c2ccccc2)C3)ccc1N(C)C [PD 123319]
reduction of intimal hyperplasia / intimal area [4]: 73%

AII(5-8): AII fragment (IHPF; Angiotensin 2; UniProt P01019 29-32, looked up, fragment)
effect on water intake [1]: only a slight effect | effect on blood pressure [2]: minimal effect

CGP 42112
neointimal formation [4]: prevented neointimal formation

Asp-Arg-Val-Tyr-Ile-His-Pro-Phe (DRVYIHPF) [angiotensin II, positive control]
rate of wound healing [5]: significantly increases

CCCCc1nc(Cl)c(CO)n1Cc1ccc(-c2ccccc2-c2nn[nH]n2)cc1 [losartan]
neointimal formation [4]: ineffective | reduction of intimal hyperplasia / intimal area [4]: 95%

AII(1-7): fragment of AII (DRVYIHP; Angiotensin 2; UniProt P01019 25-31, looked up, fragment)
effect on water intake [1]: completely inactive | amount needed for a comparable pressor response, relative to AII ([6]; Benter et al. 1993): about 10,000 times more AII(1-7) than AII | dose needed for effects on blood pressure (pressor), relative to AII ([6]; depending upon the model tested and route of administration): 10,000-100,000 times the dose of AII
